Data: ChEMBL document CHEMBL1144256, “Potent Kv1.3 inhibitors from correolide-modification of the C18 position” (Bioorg Med Chem Lett, 2005)

Biological target: Potassium voltage-gated channel subfamily A member 3 (Homo sapiens, UniProt P22001)
Assay: Inhibitory activity against voltage-gated potassium channel subunit Kv1.3
Assay type: functional

Sequence of Potassium voltage-gated channel subfamily A member 3 (P22001 whole entry): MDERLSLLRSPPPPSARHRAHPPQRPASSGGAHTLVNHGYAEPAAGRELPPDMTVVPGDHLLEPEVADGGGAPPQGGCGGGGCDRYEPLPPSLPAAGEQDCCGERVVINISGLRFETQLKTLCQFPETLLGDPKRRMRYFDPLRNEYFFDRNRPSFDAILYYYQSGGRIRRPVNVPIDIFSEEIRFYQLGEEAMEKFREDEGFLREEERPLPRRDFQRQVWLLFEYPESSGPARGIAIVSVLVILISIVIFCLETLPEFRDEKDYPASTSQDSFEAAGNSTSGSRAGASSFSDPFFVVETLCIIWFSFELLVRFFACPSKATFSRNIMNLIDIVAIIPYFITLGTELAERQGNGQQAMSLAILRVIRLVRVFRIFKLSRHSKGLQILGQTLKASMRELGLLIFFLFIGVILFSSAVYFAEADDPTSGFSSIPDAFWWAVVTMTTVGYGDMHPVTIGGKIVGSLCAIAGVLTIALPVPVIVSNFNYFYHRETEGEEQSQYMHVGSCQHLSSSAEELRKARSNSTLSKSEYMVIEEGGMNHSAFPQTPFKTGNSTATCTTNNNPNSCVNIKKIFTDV

## C=C1C[C@@]2(O)C3CC[C@]4(C)C([C@H](OC(C)=O)[C@H](OC(C)=O)[C@@]5([C@@H](C)OC(C)=O)COCC=CC45)[C@@]3(C)[C@H](OC(C)=O)[C@H](OC(C)=O)[C@@]2(C)C2(C(=O)OC)O[C@H]12 (stereo partly specified)
  IC50: 10 nM
